These results are taken from patent US20110110891A1, “Methods of Treating Hepatitis C Virus Infection” (priority 2008, published 2011).

Structures are written as SMILES. Some results are limits rather than exact numbers.

Assay [1] concerns HCV. The assay can be described thus: Intracellular HCV RNA in eGFP-Jc1 transfected Huh7.5 cells (qRT-PCR). It counts as cell-based, Hepatitis C virus. To be noted: 10 μM, Day 3. As to the method:
The eGFP-Jc1 reporter construct is a modified version of the Jc1 (J6/C3 chimera) described by Pietschmann et al. (2006) PNAS 103(19): 7408-7413, in which an eGFP (enhanced green fluorescent protein)-IRES (internal ribosomal entry site) cassette has been inserted between the 5′UTR and the open reading frame of the Jc1 construct.
(§1) Transfected cells were then plated at 2×10^6 cells per T75 flask.
(§2) Day 1: The cells were washed 3 times and treated with 10 μl dimethylsulfoxide (DMSO) (control), 10 μM ERK Inhibitor II (FR180204Calbiochem) or 10 μM U0126 (Promega).
(§3) Day 3: The transfected Huh7.5 cells and the supernatant were harvested. The harvested cells and the supernatant were analyzed by quantitative reverse transcription-polymerase chain reaction (qRT-PCR) for levels of HCV RNA
Total RNA was extracted from transfected cells using RNA STAT-60 REAGENT (Tel Test).
(§4) Viral RNA in culture supernatants was isolated using RNA STAT-50 LS REAGENT (Tel Test). total cellular RNA or 10 μl of RNA of culture supernatant was used for cDNA synthesis using SuperScript III reverse transcriptase (Invitrogen) and random hexamer primers. Viral RNA levels were measured by quantitative real-time PCR using Taqman probes and corresponding primers.

Assay [2] concerns HCV. The assay can be described thus: HCV RNA in supernatant of eGFP-Jc1 transfected Huh7.5 cells (qRT-PCR). In kind it is cell-based, Hepatitis C virus. To be noted: 10 μM, Day 3. As to the method: Day 0: Huh7.5 cells were transfected with an eGFP-Jc1 reporter construct RNA via electroporation (10 μg RNA per 4×10^6 cells). The eGFP-Jc1 reporter construct is a modified version of the Jc1 (J6/C3 chimera) described by Pietschmann et al. (2006) PNAS 103(19): 7408-7413, in which an eGFP (enhanced green fluorescent protein)-IRES (internal ribosomal entry site) cassette has been inserted between the 5′UTR and the open reading frame of the Jc1 construct.
as §1, §2, §3, §4
On the technique in general: In qPCR the cycle at which signal appears reflects the starting amount.

The target of assay [3] is ERK-2 (Homo sapiens, UniProt P28482). To be noted: cited from earlier work.
Assay [4] has as its target MEK-1 (Homo sapiens, UniProt Q02750). To be noted: in vitro; cited from earlier work.
Assay [5] relates to ERK. To be noted: cited from earlier work.
Assay [6] deals with c-Src (Homo sapiens, UniProt P12931). To be noted: cited from earlier work.
The target in assay [7] is PI 3-kinase γ (Homo sapiens, UniProt P48736). To be noted: cited from earlier work.
Assay [8] concerns Mek. To be noted: cited from earlier work.
In assay [9] the test system is MEK 1/2. To be noted: cited from earlier work.
Assay [10] concerns cdks. To be noted: cited from earlier work.
Assay [11] deals with HCV. To be noted: 10 μM, 1 h pretreatment, anti-CD81 single-round infection. The method, then:
Virus: Transfection of Huh7.5 cells with eGFP-Jc1 reporter construct RNA via electroporation (10 μg RNA per 4×10^6 cells)
Harvest virus in the supernatant (Filter & Concentrate using Amicon MWCO 100): conc 10 ml to 200 μl after 3 days
Day 0: Plate Huh7.5 at 1×10^4 cells per well […] (24 well plate)
Day 1: Pretreat cells with 10 μl DMSO or 10 μM U0126 for 1 h
Infection with 50 μl conc. virus per well for 3 h at 37° C.
Addition of 10 μg/ml anti-CD81 antibody (α-CD81) for single-round infection
Day 4: Harvest infected cells for FACS analysis.

MEK-1, sequence (Q02750 whole entry, species assumed): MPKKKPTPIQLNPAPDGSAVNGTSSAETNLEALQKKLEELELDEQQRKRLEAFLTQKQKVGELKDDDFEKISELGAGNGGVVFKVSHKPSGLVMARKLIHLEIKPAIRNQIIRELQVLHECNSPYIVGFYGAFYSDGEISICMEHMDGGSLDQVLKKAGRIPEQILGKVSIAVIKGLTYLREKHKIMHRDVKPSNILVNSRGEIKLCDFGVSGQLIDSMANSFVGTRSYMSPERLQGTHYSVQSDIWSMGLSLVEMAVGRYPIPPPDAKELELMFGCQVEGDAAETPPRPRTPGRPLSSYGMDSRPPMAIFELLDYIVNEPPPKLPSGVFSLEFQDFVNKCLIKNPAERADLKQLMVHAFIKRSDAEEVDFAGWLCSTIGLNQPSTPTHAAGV
c-Src, sequence (P12931 whole entry, species assumed): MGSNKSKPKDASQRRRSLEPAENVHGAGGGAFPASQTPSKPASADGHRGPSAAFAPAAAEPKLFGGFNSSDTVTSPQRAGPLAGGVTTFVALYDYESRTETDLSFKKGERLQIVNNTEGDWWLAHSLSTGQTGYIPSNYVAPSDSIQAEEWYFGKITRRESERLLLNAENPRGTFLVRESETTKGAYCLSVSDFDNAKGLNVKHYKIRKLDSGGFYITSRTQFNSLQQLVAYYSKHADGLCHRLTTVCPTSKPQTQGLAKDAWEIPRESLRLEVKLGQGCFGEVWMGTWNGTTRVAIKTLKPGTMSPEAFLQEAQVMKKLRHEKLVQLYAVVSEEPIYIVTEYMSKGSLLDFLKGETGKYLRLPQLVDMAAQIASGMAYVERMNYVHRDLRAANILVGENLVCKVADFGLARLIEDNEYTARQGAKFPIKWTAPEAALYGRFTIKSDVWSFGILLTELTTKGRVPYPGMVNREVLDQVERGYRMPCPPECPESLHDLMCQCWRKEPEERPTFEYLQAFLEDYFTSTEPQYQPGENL
PI 3-kinase γ, sequence (P48736 whole entry): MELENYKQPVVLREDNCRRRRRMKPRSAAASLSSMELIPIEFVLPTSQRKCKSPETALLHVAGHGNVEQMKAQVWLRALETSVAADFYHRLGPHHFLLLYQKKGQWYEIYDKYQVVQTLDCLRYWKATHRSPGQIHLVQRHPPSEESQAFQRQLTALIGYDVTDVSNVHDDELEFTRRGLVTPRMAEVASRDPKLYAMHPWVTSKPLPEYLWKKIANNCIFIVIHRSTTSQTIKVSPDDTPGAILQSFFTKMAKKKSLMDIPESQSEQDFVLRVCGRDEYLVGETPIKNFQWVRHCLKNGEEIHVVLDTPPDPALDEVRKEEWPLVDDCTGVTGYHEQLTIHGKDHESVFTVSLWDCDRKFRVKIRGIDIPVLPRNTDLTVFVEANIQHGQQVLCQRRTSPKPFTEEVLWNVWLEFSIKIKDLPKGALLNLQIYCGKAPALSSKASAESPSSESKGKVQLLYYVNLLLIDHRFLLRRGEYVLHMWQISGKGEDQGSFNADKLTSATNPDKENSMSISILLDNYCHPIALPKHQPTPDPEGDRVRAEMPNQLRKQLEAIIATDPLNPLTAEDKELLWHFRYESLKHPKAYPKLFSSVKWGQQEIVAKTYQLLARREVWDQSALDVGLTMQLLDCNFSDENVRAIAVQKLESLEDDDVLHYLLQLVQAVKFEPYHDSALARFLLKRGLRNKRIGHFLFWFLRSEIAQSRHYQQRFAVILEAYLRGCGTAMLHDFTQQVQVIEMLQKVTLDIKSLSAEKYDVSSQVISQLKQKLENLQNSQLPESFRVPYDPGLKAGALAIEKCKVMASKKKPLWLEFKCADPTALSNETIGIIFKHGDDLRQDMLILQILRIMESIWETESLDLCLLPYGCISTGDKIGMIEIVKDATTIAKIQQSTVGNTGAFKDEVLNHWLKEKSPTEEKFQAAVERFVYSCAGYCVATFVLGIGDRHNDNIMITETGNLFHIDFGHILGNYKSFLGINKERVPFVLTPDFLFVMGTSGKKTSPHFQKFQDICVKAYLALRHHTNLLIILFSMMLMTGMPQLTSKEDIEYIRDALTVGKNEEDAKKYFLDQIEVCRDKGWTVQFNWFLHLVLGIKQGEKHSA
ERK-2, sequence (P28482 whole entry, species assumed): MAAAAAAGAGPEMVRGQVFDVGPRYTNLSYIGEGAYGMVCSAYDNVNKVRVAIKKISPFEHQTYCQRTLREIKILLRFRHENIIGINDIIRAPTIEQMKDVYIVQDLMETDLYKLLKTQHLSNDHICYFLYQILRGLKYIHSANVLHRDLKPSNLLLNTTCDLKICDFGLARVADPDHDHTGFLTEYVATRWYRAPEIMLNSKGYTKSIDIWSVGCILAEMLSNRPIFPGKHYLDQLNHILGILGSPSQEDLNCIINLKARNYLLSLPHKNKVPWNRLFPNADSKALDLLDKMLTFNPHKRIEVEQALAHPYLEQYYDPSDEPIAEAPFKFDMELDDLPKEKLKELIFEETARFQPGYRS

As for `Nc1n[nH]c2nnc(-c3c(-c4ccccc4)nn4ccccc34)cc12` [FR180204, 5-(2-phenylpyrazolo[1,5-a]pyridin-3-yl)-1H-pyrazolo[3,4-c]pyridazin-3-amine], the “level of intracellular HCV RNA per μg total RNA” value in assay [1] was “increased”. The “decrease in number of HCV copies per ml supernatant compared with control treated cells” value in [2] is approximately 50%.

In the case of `Cc1cc(O)c2c(=O)c3c(O)cc(O)c4c5c(O)cc(O)c6c(=O)c7c(O)cc(C)c8c1c2c(c34)c(c78)c65` [Hypericin], the IC50 (as a rule, the midpoint of a concentration-inhibition curve) in assay [3] is 0.004 µM.

As for `COc1cc(O)c2c(c1)/C=C/C[C@]1(O)C(C=CC(=O)[C@H]1O)[C@H](C)OC2=O` (stereo partly drawn) [L-783,277], the IC50 in [4] is 0.004 µM.

With `Cc1cc(I)ccc1Nc1c(C(=O)NOCC2CC2)cc(F)c(F)c1F` [PD198306, N-(Cyclopropylmethoxy)-3,4,5-trifluoro-2-[(4-iodo-2-methylphenyl)amino]-benzamide], the IC50 in assay [5] was more than 1 µM; in [6] it was more than 4 µM; in assay [7] it was more than 10 µM; in assay [10], more than 4 µM. Besides, the “concentrations inhibiting Mek activity in synovial fibroblasts” value in [8] was 30 to 100 nM. Besides, the “concentration inhibiting isolated enzyme” value in assay [9] is recorded as 8 nM.

Take `COc1cc(O)c2c(c1)/C=C/C[C@@]1(O)C(C=CC(=O)[C@H]1O)[C@H](C)OC2=O` (some centres unmarked) [Ro 09-2210]: in assay [4], the IC50 was 0.06 µM.

Turning to `N#CC(=C(/N)Sc1ccccc1N)/C(C#N)=C(\N)Sc1ccccc1N` [U0126, 1,4-Diamino-2,3-dicyano-1,4-bis(2-aminophenylthio)butadiene], in [1], the “level of intracellular HCV RNA per μg total RNA” value is reported as “increased”. The “HCV copies per ml supernatant relative to supernatant of control treated cells” value in assay [2] was “one third”. Also, the “viral entry detected by GFP expression” value in assay [11] is on record as “HCV entered the cells”.
